In US12285431B2, “Treatment of Rb-negative tumors using topoisomerase inhibitors in combination with cyclin dependent kinase 4/6 inhibitors” (G1 Therapeutics, Inc., priority 2014, dated 2025):

What was measured:
[1] = tested on: ZR-75-1 (breast ductal carcinoma, Rb-positive); assay: Cellular proliferation assay (CellTiter-Glo), ZR-75-1; format: cell-based; conditions: Homo sapiens, ZR-75-1, 144 h, cell viability after six days, read-out: ZR75-1 Cellular EC50
Description: (§1) Further cellular proliferation assays were conducted using the following cancer cell lines: MCF7 (breast adenocarcinoma—Rb-positive), ZR-75-1 (breast ductal carcinoma—Rb-positive), H69 (human small cell lung cancer—Rb-negative) cells, or A2058 (human metastatic melanoma cells—Rb-negative). These cells were seeded in Costar (Tewksbury, Massachusetts) 3093 96 well tissue culture treated white walled/clear bottom plates. Cells were treated with the compounds of Table 1 as nine point dose response dilution series from 10 uM to 1 nM. Cells were exposed to compounds and then cell viability was determined after either four (H69) or six (MCF7, ZR75-1, A2058) days as indicated using the CellTiter-Glo® luminescent cell viability assay (CTG; Promega, Madison, Wisconsin, United States of America) following the manufacturer's recommendations. Plates were read on BioTek (Winooski, Vermont) Syngergy2 multi-mode plate reader. The Relative Light Units (RLU) were plotted as a result of variable molar concentration and data was analyzed using Graphpad (LaJolla, California) Prism 5 statistical software to determine the EC50 for each compound.

[2] = tested on: A2058 (human metastatic melanoma cells, Rb-negative); assay: Cellular proliferation assay (CellTiter-Glo), A2058; format: cell-based; conditions: A2058, 144 h, cell viability after six days
Description: as §1

[3] = tested on: HS68 cells; assay: G1 arrest (cellular G1 and S-phase) assay, propidium iodide flow cytometry; format: cell-based, human; conditions: Homo sapiens, Hs68, HS68 cells
Description: HS68 cells (human skin fibroblast cell line (Rb-positive)) were stained with propidium iodide staining solution and run on Dako Cyan Flow Cytometer. The fraction of cells in G0-G1 DNA cell cycle versus the fraction in S-phase DNA cell cycle was determined using FlowJo 7.2.2 analysis.
The compounds listed in Table 1 were tested for their ability to arrest HS68 cells at the G1 phase of the cell cycle.

[4] = tested on: H69 (human small cell lung cancer, Rb-negative) cells; assay: Cellular proliferation assay (CellTiter-Glo), H69; format: cell-based; conditions: NCI-H69, 96 h, cell viability after four days
Description: as §1

[5] = tested on: MCF7 (breast adenocarcinoma, Rb-positive); assay: Cellular proliferation assay (CellTiter-Glo), MCF7; format: cell-based; conditions: Homo sapiens, MCF7, 144 h, cell viability after six days
Description: as §1

[6] = target: CDK4/CyclinD1 (Homo sapiens, UniProt P11802); assay: CDK4/cyclinD1 kinase assay (Nanosyn, Caliper microfluidic kinase detection); format: biochemical; conditions: Table 2; 12-point dose-response, ATP at Km (200 μM), 10 hr; read-out: CDK4/CycD1 IC50
Sequence of CDK4/CyclinD1 (P11802 whole entry, species assumed): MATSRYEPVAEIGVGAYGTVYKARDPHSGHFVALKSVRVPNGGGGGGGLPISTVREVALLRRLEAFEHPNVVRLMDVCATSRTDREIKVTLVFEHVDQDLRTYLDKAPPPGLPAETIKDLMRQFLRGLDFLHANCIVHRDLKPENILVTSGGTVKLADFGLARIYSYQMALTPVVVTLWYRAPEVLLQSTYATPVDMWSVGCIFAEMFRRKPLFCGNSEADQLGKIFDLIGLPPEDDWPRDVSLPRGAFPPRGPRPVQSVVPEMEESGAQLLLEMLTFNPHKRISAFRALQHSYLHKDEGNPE
Sequence of CDK4/CyclinD1 (P24385 whole entry partner, species assumed): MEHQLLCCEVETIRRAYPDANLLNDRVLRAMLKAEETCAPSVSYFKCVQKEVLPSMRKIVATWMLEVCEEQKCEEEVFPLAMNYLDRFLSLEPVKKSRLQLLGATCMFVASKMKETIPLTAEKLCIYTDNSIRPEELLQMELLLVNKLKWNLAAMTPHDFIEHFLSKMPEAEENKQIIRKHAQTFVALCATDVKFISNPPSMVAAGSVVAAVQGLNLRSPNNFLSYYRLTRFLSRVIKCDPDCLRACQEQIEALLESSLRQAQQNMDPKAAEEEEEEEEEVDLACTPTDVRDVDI
Description: The assays were performed using microfluidic kinase detection technology (Caliper Assay Platform). The compounds were tested in 12-point dose-response format in singlicate at Km for ATP. Phosphoacceptor substrate peptide concentration used was 1 μM for all assays and Staurosporine was used as the reference compound for all assays. Specifics of each assay are as described below:
CDK4/CyclinD1: Enzyme concentration: 1 nM; ATP concentration: 200 μM; Incubation time: 10 hr.

[7] = tested on: small cell lung cancer cell lines; conditions: Hamilton et al., cited from earlier work; for cytotoxic effect in combination with topotecan (in words): Journal of Cancer Therapy (2013); for cytotoxic / chemosensitizing effect in combination with various camptothecin derivatives (in words): Molecules (2014), rubitecan, 9AC, topotecan, SN38, CPT109
[8] = Mouse pharmacokinetics (oral gavage / intravenous); format: in vivo, mice; conditions: for AUC 0-inf (uM * h) i.v.: 10 mg/kg intravenous injection; for AUC (uM * h) p.o. / Cmax / Tmax (h) p.o. / t1/2 (h) p.o.: 30 mg/kg oral gavage
[9] = tested on: NCI-H69 SCLC xenograft (Rb-negative); format: in vivo
From the text: An Rb-negative model of small cell lung cancer was used in the following example. Briefly, xenografts of National Cancer Institute (NCI) […] cells were grafted onto the mice (Athymic Nude (Crl:NU(NCr)-Foxn1^nu); 6-12 week old females) using the South Texas Accelerated Research Therapeutics (START) Cell-Based Xenograft (START-CBX) tumor model. H69 cells are human small cell lung cancer cells and are Rb-negative.
Data collected from the efficacy study included animal weights, observations and tumor dimensions. This information was used to determine agent tolerability based on weight change and gross physiologic changes and anticancer activity based on tumor growth delay or regression. The designated endpoint for this study was an individual tumor volume of 1 cm^3 or 60 days following treatment initiation.
Tumor fragments from NCI-H69 were harvested from host animals and implanted into immune-deficient mice and the study initiated at a mean tumor volume of approximately 150-250 mm^3.
Additional details of the study are outlined in Table 6 below. […] Tumor size was examined twice per week and the endpoint for this study was Day 59.

[10] = Group 6: Compound T vehicle and topotecan 0.6 mg/kg IP qdx5x4

Row | EC50 [1] | EC50 [2] | EC50 [3] | EC50 [4] | EC50 [5] | IC50 [6] | SMILES | further results
1 | 29 nM | 2670 nM | 40 nM | > 3000 nM | 56 nM |  | CN(C)C1CCN(c2ccc(Nc3ncc4cc5n(c4n3)C3(CCCCC3)CNC5=O)nc2)CC1 [O] | 
2 | 44 nM |  | 110 nM | > 3000 nM | 75 nM | 4.2 nM | C[C@H](O)CN1CCN(c2ccc(Nc3ncc4cc5n(c4n3)C3(CCCCC3)CNC5=O)nc2)CC1 [A] | 
3 |  |  |  |  |  |  | CC[C@H](CO)Nc1nc(NCc2ccccc2)c2ncn(C(C)C)c2n1 [roscovitine] | cytotoxic effect in combination with topotecan (in words) [7]: synergistic cytotoxic effect; cytotoxic / chemosensitizing effect in combination with various camptothecin derivatives (in words) [7]: synergistic cytotoxic effect
4 | 38 nM | > 3000 nM | 90 nM | > 3000 nM | 50 nM | 1.6 nM | CCN(CC)C1CCN(c2ccc(Nc3ncc4cc5n(c4n3)C3(CCCCC3)CNC5=O)nc2)CC1 [CC] | 
5 | 59 nM | > 3000 nM | 25 nM | > 3000 nM | 70 nM |  | O=C1NCC2(CCCCC2)n2c1cc1cnc(Nc3ccc(N4CCC(N5CCOCC5)CC4)cn3)nc12 [Compound U] | AUC 0-inf (uM * h) i.v. [8]: 0.76 µM·h; AUC (uM * h) p.o. [8]: 3.3 µM·h; Cmax [8]: 4.2 µM; Tmax (h) p.o. [8]: 0.5 h; t1/2 (h) p.o. ([8]; 30 mg/kg): 3 h
6 | 46 nM | 1670 nM | 50 nM | 2910 nM | 57 nM | 0.9 nM | CN1CCN(c2ccc(Nc3ncc4cc5n(c4n3)C3(CCCCC3)CNC5=O)nc2)CC1(C)C [D] | 
7 | 82 nM | > 3000 nM | 110 nM | > 3000 nM | 70 nM |  | C[C@@H]1CN(c2ccc(Nc3ncc4cc5n(c4n3)C3(CCCCC3)CNC5=O)nc2)CCN1C[C@@H](C)O [J] | 
8 | 141 nM | > 3000 nM | 200 nM | > 3000 nM | 134 nM |  | CCOCCN1CCN(c2ccc(Nc3ncc4cc5n(c4n3)C3(CCCC3)CNC5=O)nc2)CC1 [MMM] | 
9 | 33 nM | > 3000 nM | 40 nM | > 3000 nM | 94 nM | 2 nM | CC(C)N1CCN(C(=O)c2ccc(Nc3ncc4cc5n(c4n3)C3(CCCCC3)CNC5=O)nc2)CC1 [II] | 
10 | 43 nM | > 3000 nM | 30 nM | > 3000 nM | 60 nM | 3.3 nM | C[C@@H]1CN(c2ccc(Nc3ncc4cc5n(c4n3)C3(CCCCC3)CNC5=O)nc2)C[C@H](C)N1 [P] | 
11 |  |  |  |  |  |  | CC[C@@]1(O)C(=O)OCc2c1cc1n(c2=O)Cc2cc3c(CN(C)C)c(O)ccc3nc2-1 [topotecan, reference compound] | activity toward NCI-H69 xenografts / tumor volume (in words) ([9]; Compound T alone 100 mg/kg, topotecan 0.6 mg/kg, combination with each Compound T dose (100, 50 or 10 mg/kg), FIG. 16): active and reduced tumor volumes; CR (tumor volume < 15 mm^3) [9, 10]: 0; LTS (individual tumor volume < volume endpoint at study time endpoint) [9, 10]: 1; MTTE ± SD (timepoint in days to reach designated tumor volume or time endpoint) [9, 10]: 52 ± 7 days; PR (%) (tumor volume ≥ 50% regression versus Day 0) [9, 10]: 0%; T-C (difference in days between MTTE of treatment and control groups) [9, 10]: 34 days; TFS (complete responder at study endpoint) [9, 10]: 0; survival versus vehicle or Compound T only (in words) ([9]; topotecan 0.6 mg/kg, with or without Compound T, FIG. 15): survived significantly longer than mice treated with vehicle or Compound T only
12 | 229 nM | > 3000 nM | 95 nM | > 3000 nM | 120 nM |  | CC1CN(c2ccc(Nc3ncc4cc5n(c4n3)C3(CCCCC3)CNC5=O)nc2)CC(C)N1CC1CC1 (centres unmarked) [OO] | 
13 | 581 nM |  | 175 nM |  | 257 nM | 4.6 nM | CN(C)C1CCN(c2ccc(Nc3ncc4cc5n(c4n3)C3(CCCC3)CNC5=O)nc2)CC1 [YY] | 
14 | 50 nM | 2630 nM | 70 nM | > 3000 nM | 36 nM | 0.5 nM | C[C@H]1CN(c2ccc(Nc3ncc4cc5n(c4n3)C3(CCCCC3)CNC5=O)nc2)CCN1C [R] | 
15 | 120 nM | 1310 nM | 85 nM | 2040 nM | 85 nM | 1.5 nM | CC1(C)CN(c2ccc(Nc3ncc4cc5n(c4n3)C3(CCCCC3)CNC5=O)nc2)CCN1CC1CC1 [H] | 
16 |  |  |  |  |  |  | CC(=O)c1c(C)c2cnc(Nc3ccc(N4CCNCC4)cn3)nc2n(C2CCCC2)c1=O [PD0332991, palbociclib] | cytotoxic / chemosensitizing effect in combination with various camptothecin derivatives (in words) [7]: low chemosensitizing activity
17 | 53 nM | 1660 nM | 80 nM | 2950 nM | 94 nM | 0.8 nM | CN(C)C1CCN(c2ccc(Nc3ncc4cc5n(c4n3)C3(CCCCC3)CNC5=O)nn2)CC1 [SS] | 
18 | 40 nM | 1060 nM | 80 nM | 2950 nM | 61 nM | 2 nM | CC1(C)CN(c2ccc(Nc3ncc4cc5n(c4n3)C3(CCCCC3)CNC5=O)nc2)CCN1 [I] | 
19 | 24 nM | 1440 nM | 25 nM | > 3000 nM | 28 nM | 1 nM | O=C1NCC2(CCCCC2)n2c1cc1cnc(Nc3ccc(N4CCC(N5CCCCC5)CC4)cn3)nc12 [N] | 
20 | 203 nM |  | 125 nM |  | 216 nM | 3.8 nM | CC(C)N1CCN(Cc2ccc(Nc3ncc4cc5n(c4n3)C3(CCCCC3)CNC5=O)nc2)CC1 [EE] | 
21 | 29 nM | 1350 nM | 70 nM | > 3000 nM | 50 nM | 2.9 nM | C[C@@H]1CN(c2ccc(Nc3ncc4cc5n(c4n3)C3(CCCCC3)CNC5=O)nc2)CCN1 [V] | 
22 |  |  |  |  |  |  | Cn1cnc2c(NCc3ccccc3)nc(NCCO)nc21 [olomoucine] | cytotoxic effect in combination with topotecan (in words) [7]: synergistic cytotoxic effect; cytotoxic / chemosensitizing effect in combination with various camptothecin derivatives (in words) [7]: synergistic cytotoxic effect
23 | 62 nM | 1370 nM | 75 nM | 2580 nM | 53 nM | 1 nM | CC(C)C1CN(c2ccc(Nc3ncc4cc5n(c4n3)C3(CCCCC3)CNC5=O)nc2)CCN1 (centres unmarked) [E] | 
24 | 77 nM | > 3000 nM | 100 nM | > 3000 nM | 73 nM | 1.8 nM | C[C@@H]1CN(c2ccc(Nc3ncc4cc5n(c4n3)C3(CCCCC3)CNC5=O)nc2)C[C@H](C)N1C[C@@H](C)O [MM] | 
25 | 35 nM | 2610 nM | 100 nM | > 3000 nM | 49 nM |  | O=C1NCC2(CCCCC2)n2c1cc1cnc(Nc3ccc(N4CCNCC4)cn3)nc12 [Compound Q] | AUC 0-inf (uM * h) i.v. [8]: 0.95 µM·h; AUC (uM * h) p.o. [8]: 0.15 µM·h; Cmax [8]: 0.16 µM; Tmax (h) p.o. [8]: 0.5 h; t1/2 (h) p.o. [8]: 0.8 h
26 | 47 nM |  | 70 nM | > 3000 nM | 47 nM | 0.5 nM | CC(C)N1CCN(c2ccc(Nc3ncc4cc5n(c4n3)C3(CCCCC3)CNC5=O)nc2)C[C@@H]1C [AA] | 
